# Measurements: ChEMBL document CHEMBL4732115, “Discovery of novel cell-penetrating and tumor-targeting peptide-drug conjugate (PDC) for programmable delivery of paclitaxel and cancer treatment” (Eur J Med Chem, 2021)
# Activity calls are given as the source filed them. No cut-off for these calls is given here. Peptide text beside a SMILES is read from it. * marks the point of attachment. X1 = CC(=O)O[C@H]1C(=O)[C@@]2(C)[C@H]([C@H](OC(=O)c3ccccc3)[C@]3(O)C[C@H](OC(=O)[C@H](OC(=O)OCCS*)[C@@H](NC(=O)c4ccccc4)c4ccccc4)C(C)=C1C3(C)C)[C@]1(OC(C)=O)CO[C@@H]1C[C@@H]2O; X2 = NCCCC[C@H](N*)C(=O)NC(=O)C1CCC(=O)N1
# Key:
# [1] = Neurotoxicity in BALB/c mouse assessed as increase in pain sensitivity at 12 umol/kg, ip administered every two days for 14 days by cold water tail immersion test; assay type: toxicity, organism-based; conditions: in vivo, 336 h, dose 12 µmol/kg, time 14 day
# [2] = Neurotoxicity in BALB/c mouse assessed as change in DOPAC level at 12 umol/kg, ip administered every two days for 14 days measured post last dose by LC-MS analysis; assay type: toxicity, organism-based; conditions: in vivo, 336 h, dose 12 µmol/kg, time 14 day
# MCF7 [3] = assay: Induction of apoptosis in human MCF7 cells xenografted in ip dosed BALB/c nude mouse assessed as up regulation of cleaved caspase-9 expression administered every two days for two weeks measured post last dose by Western blot analysis; assay type: functional, organism-based; conditions: dose 8-12 µmol/kg, time 2.0 weeks
# [4] = Drug conversion in heart of BALB/c nude mouse xenografted with human MCF7 cells assessed as T2-PTX formation at 8 to 12 umol/kg, ip measured after 2 hrs by LC-MS analysis; assay type: ADME, organism-based; conditions: in vivo, dose 8-12 µmol/kg
# [5] = Drug uptake in human MCF7 cells at 20 nM measured after 4 hrs by LC-MS analysis; assay type: ADME, cell-based; conditions: mcf7, 4 h, 0.02 µM
# [6] = Neurotoxicity in BALB/c mouse assessed as increase in pain sensitivity at 12 umol/kg, ip administered every two days for 14 days by hot-plate test; assay type: toxicity, organism-based; conditions: in vivo, 336 h, dose 12 µmol/kg, time 14 day
# MCF7 [7] = assay: Induction of apoptosis in human MCF7 cells xenografted in ip dosed BALB/c nude mouse assessed as up regulation of Bax expression administered every two days for two weeks measured post last dose by Western blot analysis; assay type: functional, organism-based; conditions: dose 8-12 µmol/kg, time 2.0 weeks
# [8] = Toxicity in human MCF7 cells xenografted in BALB/c nude mouse assessed as morphological changes in liver at 8 to 12 umol/kg, ip administered every two days for two weeks measured post last dose by H and E staining based histological analysis; assay type: organism-based; conditions: in vivo, 336 h, dose 8-12 µmol/kg, time 2 weeks
# [9] = Neurotoxicity in BALB/c mouse assessed as change in histidine level at 12 umol/kg, ip administered every two days for 14 days measured post last dose by LC-MS analysis; assay type: toxicity, organism-based; conditions: in vivo, 336 h, dose 12 µmol/kg, time 14 day
# [10] = Toxicity in human MCF7 cells xenografted in BALB/c nude mouse assessed as morphological changes in spleen at 8 to 12 umol/kg, ip administered every two days for two weeks measured post last dose by H and E staining based histological analysis; assay type: organism-based; conditions: in vivo, 336 h, dose 8-12 µmol/kg, time 2 weeks
# MCF7 [11] = assay: Antitumor activity against human MCF7 cells xenografted in BALB/c nude mouse assessed as reduction in tumor weight at 8 umol/kg, ip administered every two days for two weeks relative to control; assay type: functional; design: scale not given: the % may be the effect or the level left; conditions: dose 8 µmol/kg; time 2 weeks
# [12] = Neurotoxicity in BALB/c mouse assessed as change in acetylcholine level at 12 umol/kg, ip administered every two days for 14 days measured post last dose by LC-MS analysis; assay type: toxicity, organism-based; conditions: in vivo, 336 h, dose 12 µmol/kg, time 14 day
# [13] = Drug conversion in kidney of BALB/c nude mouse xenografted with human MCF7 cells assessed as PTX formation at 8 to 12 umol/kg, ip measured after 2 hrs by LC-MS analysis; assay type: ADME, organism-based; conditions: in vivo, dose 8-12 µmol/kg
# [14] = Neurotoxicity in BALB/c mouse assessed as increase in pain sensitivity at 12 umol/kg, ip administered every two days for 14 days by hot water tail immersion test; assay type: toxicity, organism-based; conditions: in vivo, 336 h, dose 12 µmol/kg, time 14 day
# MCF7 [15] = assay: Cytotoxicity against human MCF7 cells assessed as reduction in cell viability measured after 48 hrs by MTT assay; assay type: functional, cell-based; conditions: MCF7, 48 h
# [16] = Neurotoxicity in BALB/c mouse assessed as change in histamine level at 12 umol/kg, ip administered every two days for 14 days measured post last dose by LC-MS analysis; assay type: toxicity, organism-based; conditions: in vivo, 336 h, dose 12 µmol/kg, time 14 day
# [17] = Toxicity in human MCF7 cells xenografted in BALB/c nude mouse assessed as morphological changes in heart at 8 to 12 umol/kg, ip administered every two days for two weeks measured post last dose by H and E staining based histological analysis; assay type: organism-based; conditions: in vivo, 336 h, dose 8-12 µmol/kg, time 2 weeks
# [18] = target: 72 kDa type IV collagenase (Homo sapiens, UniProt P08253); assay: Drug metabolism in PBS buffer assessed as MMP2 (unknown origin)-mediated CPP-PTX formation at 0.5 uM measured after 2 hrs by LC-MS analysis; assay type: ADME
# Sequence of 72 kDa type IV collagenase (P08253 whole entry): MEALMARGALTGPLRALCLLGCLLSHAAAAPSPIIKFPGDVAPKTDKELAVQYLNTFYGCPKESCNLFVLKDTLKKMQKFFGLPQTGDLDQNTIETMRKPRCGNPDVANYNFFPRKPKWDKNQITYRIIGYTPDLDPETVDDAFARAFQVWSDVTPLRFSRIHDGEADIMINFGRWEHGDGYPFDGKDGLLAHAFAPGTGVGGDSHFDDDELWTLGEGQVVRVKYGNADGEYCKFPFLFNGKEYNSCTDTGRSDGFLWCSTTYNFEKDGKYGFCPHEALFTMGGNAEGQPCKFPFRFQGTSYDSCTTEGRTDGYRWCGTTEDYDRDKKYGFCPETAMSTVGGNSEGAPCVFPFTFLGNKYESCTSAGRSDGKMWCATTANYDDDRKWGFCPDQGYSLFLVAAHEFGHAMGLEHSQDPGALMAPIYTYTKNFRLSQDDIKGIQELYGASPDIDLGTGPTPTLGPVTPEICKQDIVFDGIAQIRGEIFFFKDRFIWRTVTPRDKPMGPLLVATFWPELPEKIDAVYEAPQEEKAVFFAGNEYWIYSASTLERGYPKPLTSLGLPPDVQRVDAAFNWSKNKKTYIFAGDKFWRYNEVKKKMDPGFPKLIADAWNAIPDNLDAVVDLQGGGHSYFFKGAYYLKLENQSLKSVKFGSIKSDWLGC
# [19] = Myelosuppression in BALB/c mouse assessed as change in granulocyte count at 12 umol/kg, ip administered every two days for 14 days measured post last dose; assay type: ADME, organism-based; conditions: in vivo, 336 h, dose 12 µmol/kg, time 14 day
# [20] = Neurotoxicity in BALB/c mouse assessed as change in glutamate level at 12 umol/kg, ip administered every two days for 14 days measured post last dose by LC-MS analysis; assay type: toxicity, organism-based; conditions: in vivo, 336 h, dose 12 µmol/kg, time 14 day
# MCF7 [21] = assay: Antitumor activity against human MCF7 cells xenografted in BALB/c nude mouse assessed as reduction in tumor volume at 12 umol/kg, ip administered every two days for two weeks relative to control; assay type: functional; design: scale not given: the % may be the effect or the level left; conditions: dose 12 µmol/kg; time 2 weeks
# MCF7 [22] = assay: Antitumor activity against human MCF7 cells xenografted in ip dosed BALB/c nude mouse assessed as tumor shrinkage administered every two days for two weeks; assay type: functional, organism-based; conditions: dose 8-12 µmol/kg, time 2.0 weeks
# [23] = Neurotoxicity in BALB/c mouse assessed as change in GABA level at 12 umol/kg, ip administered every two days for 14 days measured post last dose by LC-MS analysis; assay type: toxicity, organism-based; conditions: in vivo, 336 h, dose 12 µmol/kg, time 14 day
# [24] = Toxicity in human MCF7 cells xenografted in BALB/c nude mouse assessed as change in body weight at 8 to 12 umol/kg, ip administered every two days for two weeks; assay type: organism-based; conditions: in vivo, 336 h, dose 8-12 µmol/kg, time 2 weeks
# MCF7 [25] = assay: Cytotoxicity against human MCF7 cells assessed as reduction in cell viability measured after 48 hrs in presence of LHRH by MTT assay; assay type: functional, cell-based
# MCF7 [26] = assay: Antitumor activity against human MCF7 cells xenografted in BALB/c nude mouse assessed as reduction in tumor volume at 8 umol/kg, ip administered every two days for two weeks relative to control; assay type: functional; design: scale not given: the % may be the effect or the level left; conditions: dose 8 µmol/kg; time 2 weeks
# Tubulin (Homo sapiens) = Tubulin (Homo sapiens) (UniProt P68371+Q9H4B7+P0DPH7+P68366+Q13509+Q71U36+P04350+Q3ZCM7+P07437+P68363+Q9BQE3+Q6PEY2+Q13885+Q9BVA1+Q9BUF5); assay: Inhibition of microtubule depolymerization in human MCF7 cells at 1.8 nM measured after 12 hrs by immunostaining based confocal microscopic analysis; assay type: cell-based
structure (smiles),measurement,setting,value
CC(=O)O[C@H]1C(=O)[C@@]2(C)[C@H]([C@H](OC(=O)c3ccccc3)[C@]3(O)C[C@H](OC(=O)[C@H](OC(=O)OCCSSC[C@H](N)C(=O)N[C@@H](CC(C)C)C(=O)N[C@@H](CC(C)C)C(=O)N[C@@H](CCCCN)C(=O)N[C@@H](CCCNC(=N)N)C(=O)N[C@@H](Cc4ccccc4)C(=O)N[C@@H](Cc4ccccc4)C(=O)N[C@@H](CCCCN)C(=O)N[C@@H](CCCCN)C(=O)N[C@@H](Cc4ccccc4)C(=O)NCC(=O)N[C@@H](C)C(=O)N[C@@H](CC(C)C)C(=O)NCC(=O)N[C@@H](CC(C)C)C(=O)N4CCC[C@H]4C(=O)NCC(=O)N4CCC[C@H]4C(=O)N[C@@H](CCCNC(=N)N)C(=O)N[C@@H](CC(C)C)C(=O)NCC(=O)N[C@@H](Cc4ccc(O)cc4)C(=O)N[C@@H](CO)C(=O)N[C@@H](Cc4c[nH]c5ccccc45)C(=O)N[C@@H](CCCCN)C(=O)NC(=O)C4CCC(=O)N4)[C@@H](NC(=O)c4ccccc4)c4ccccc4)C(C)=C1C3(C)C)[C@]1(OC(C)=O)CO[C@@H]1C[C@@H]2O (some centres not stated) (H-C(X1)LLKRFFKKFGALGLPGPRLGYSW-X2),Activity,[1],Non-Toxic
same,Activity,[2],Non-Toxic
same,Activity,MCF7 [3],Dose-dependent effect
same,Drug metabolism,[4],Metabolite_Notdetected
same,Drug uptake,[5],Active
same,Activity,[6],Non-Toxic
same,Activity,MCF7 [7],Dose-dependent effect
same,Activity,[8],Non-Toxic
same,Activity,[9],Non-Toxic
same,Activity,[10],Non-Toxic
same,Activity,MCF7 [11],67.1%
same,Activity,[12],Non-Toxic
same,Drug metabolism,[13],Metabolite_Notdetected
same,Activity,[14],Non-Toxic
same,IC50,MCF7 [15],3.8 nM
same,Activity,[16],Non-Toxic
same,Activity,[17],Non-Toxic
same,Drug metabolism,[18],Metabolite_Detected
same,Activity,[19],Non-Toxic
same,Activity,[20],Non-Toxic
same,Activity,MCF7 [21],90.1%
same,Activity,MCF7 [22],Dose-dependent effect
same,Activity,[23],Non-Toxic
same,Activity,[24],Non-Toxic
same,Activity,MCF7 [25],inactive
same,Activity,MCF7 [26],77.2%
same,inhibition,Tubulin (Homo sapiens),Active
